Values of other authors, collected in patent US12690594B2, “Apparatus and methods for dissolving carbon dioxide in water” (ECO-OXYGEN TECHNOLOGIES, LLC, priority 2023, dated 2026).

Tested on: dreissenid mussel
Settings: laboratory and field studies; no concentration or exposure time printed

O=C=O [carbon dioxide]
mortality: successfully cause mortality
rate of veliger byssogenesis (settlement and colonization): reduction in the rate of veliger byssogenesis
